Test results reported in patent US9458124B2, “Substituted pyran derivatives” (Wayne State University, priority 2013, dated 2016).

Experiments:
rats = test: Forced swimming test (animal model of depression), duration of immobility; format: in vivo, rat; settings: sub-chronic oral administration, P<0.01
Description: Compound D-525 was evaluated in Force Swim test which is a well-known animal model of depression. The test procedure consisted of a pretest and test session separated by 24 h. Drugs or vehicle were administered orally (p.o) by following the timeline as described in the standard protocol. Each rat underwent a 5-min swim session following drug administration, which was videotaped and scored later.
All drugs were prepared freshly on the test days. Compound D-525 and imipramine were dissolved in deionized water. All drugs and vehicles were administered p.o. D-525 was administered at a dose of 12.5 and 25 mg/kg. An individual, blinded to the treatment, scored the videotapes for immobility. Immobility scores were analyzed by one way ANOVA test which indicated significant difference between drug treated animals and vehicle.
FIG. 11 provides a bar chart showing the effect of sub-chronic oral administration of vehicle and D-525 on the duration of immobility in the forced swimming test in rats. […] Asterisks indicate a statistically significant difference toward control group that received saline p.o. **P<0.01. Each treatment group contained four to seven rats.

SERT = molecular target: T1, SERT (Rattus norvegicus, UniProt P31652); test: SERT uptake inhibition, [3H]-5-HT, rat brain; format: biochemical; settings: number in parentheses within cell
T1 construct: from tissue; host or cells: rat brain

NET = molecular target: T2, NET (Rattus norvegicus, UniProt Q63380); test: NET uptake inhibition, [3H]DA, rat brain; format: biochemical; settings: number in parentheses within cell
T2 construct: from tissue; host or cells: rat brain

DAT = molecular target: T3, DAT (Rattus norvegicus, UniProt P23977); test: DAT uptake inhibition, [3H]DA, rat brain; format: biochemical; settings: number in parentheses within cell
T3 construct: from tissue; host or cells: rat brain
T3 sequence (P23977 whole entry): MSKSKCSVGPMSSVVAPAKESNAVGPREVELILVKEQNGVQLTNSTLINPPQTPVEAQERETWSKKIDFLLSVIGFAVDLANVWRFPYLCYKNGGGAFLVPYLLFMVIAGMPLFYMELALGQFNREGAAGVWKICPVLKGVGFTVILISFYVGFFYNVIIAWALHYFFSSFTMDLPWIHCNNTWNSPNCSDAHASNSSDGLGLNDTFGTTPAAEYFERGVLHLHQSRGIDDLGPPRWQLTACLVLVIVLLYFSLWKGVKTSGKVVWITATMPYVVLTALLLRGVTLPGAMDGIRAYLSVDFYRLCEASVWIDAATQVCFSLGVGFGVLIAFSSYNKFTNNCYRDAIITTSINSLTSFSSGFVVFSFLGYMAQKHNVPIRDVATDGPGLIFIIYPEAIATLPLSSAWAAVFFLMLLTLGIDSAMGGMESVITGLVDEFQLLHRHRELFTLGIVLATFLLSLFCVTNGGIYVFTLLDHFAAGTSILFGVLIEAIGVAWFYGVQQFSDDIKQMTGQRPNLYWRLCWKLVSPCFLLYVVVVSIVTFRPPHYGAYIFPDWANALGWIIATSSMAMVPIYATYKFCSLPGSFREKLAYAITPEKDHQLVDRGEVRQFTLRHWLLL

T2 sequence (Q63380 1-617): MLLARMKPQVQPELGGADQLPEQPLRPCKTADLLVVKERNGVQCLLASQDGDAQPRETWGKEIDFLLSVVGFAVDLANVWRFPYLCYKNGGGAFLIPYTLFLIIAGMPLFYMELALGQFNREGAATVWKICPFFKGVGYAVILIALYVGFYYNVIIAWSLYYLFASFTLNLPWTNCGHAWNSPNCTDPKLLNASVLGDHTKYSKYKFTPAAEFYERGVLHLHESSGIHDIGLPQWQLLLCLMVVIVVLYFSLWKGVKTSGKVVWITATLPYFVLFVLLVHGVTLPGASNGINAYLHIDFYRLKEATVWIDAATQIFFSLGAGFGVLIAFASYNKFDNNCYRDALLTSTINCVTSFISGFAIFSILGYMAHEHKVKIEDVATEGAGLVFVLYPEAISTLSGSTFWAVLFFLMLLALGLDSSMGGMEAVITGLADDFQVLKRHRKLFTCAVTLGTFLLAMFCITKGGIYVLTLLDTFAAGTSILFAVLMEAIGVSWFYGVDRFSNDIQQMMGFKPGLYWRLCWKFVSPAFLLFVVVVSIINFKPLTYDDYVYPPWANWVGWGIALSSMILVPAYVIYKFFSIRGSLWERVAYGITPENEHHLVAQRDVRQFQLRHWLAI
T1 sequence (P31652 whole entry): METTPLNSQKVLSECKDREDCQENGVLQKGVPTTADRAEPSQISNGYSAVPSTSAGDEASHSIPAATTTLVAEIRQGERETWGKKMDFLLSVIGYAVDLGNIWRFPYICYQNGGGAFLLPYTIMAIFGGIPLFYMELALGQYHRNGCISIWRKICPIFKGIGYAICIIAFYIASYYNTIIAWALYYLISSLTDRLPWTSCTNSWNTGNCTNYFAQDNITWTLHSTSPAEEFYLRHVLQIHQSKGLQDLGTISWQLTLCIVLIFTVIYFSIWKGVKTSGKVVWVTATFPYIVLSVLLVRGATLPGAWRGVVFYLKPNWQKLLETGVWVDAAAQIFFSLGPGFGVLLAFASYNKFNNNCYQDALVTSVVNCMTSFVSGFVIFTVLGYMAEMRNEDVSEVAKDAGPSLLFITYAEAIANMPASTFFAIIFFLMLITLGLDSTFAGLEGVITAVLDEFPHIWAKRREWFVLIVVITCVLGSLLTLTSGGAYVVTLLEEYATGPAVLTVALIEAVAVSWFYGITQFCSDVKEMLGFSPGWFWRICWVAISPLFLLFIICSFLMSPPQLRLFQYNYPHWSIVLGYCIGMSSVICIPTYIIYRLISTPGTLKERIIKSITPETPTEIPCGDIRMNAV

Ki (SERT): 26.9 ± 2.6 nM
Ki (NET): 25.8 ± 7.7 nM
Ki (DAT): 25.3 ± 6.2 nM
Structure (SMILES): Cn1c(=O)oc2cc(CN[C@@H]3CO[C@H](C(c4ccc(F)cc4)c4ccc(F)cc4)C[C@H]3O)ccc21 [6f, D-525, 6-((((3R,4R,6S)-6-(bis(4-fluorophenyl)methyl)-4-hydroxytetrahydro-2H-pyran-3-yl)amino)methyl)-3-methylbenzo[d]oxazol-2(3H)-one]
effect on duration of immobility in the forced swimming test vs vehicle (Dunnett's analysis) (rats; 12 mg/kg): statistically significant different compared to vehicle
effect on duration of immobility in the forced swimming test vs vehicle (Dunnett's analysis) (rats; 25 mg/kg): statistically significant different compared to vehicle
